Experimental data taken from US8993717B2, “Gadd45beta targeting agents” (Imperial Innovations Limited, priority 2009, dated 2015).
Read-outs that look alike come from different tables or passages of the source. Square brackets hold non-standard residues; d marks the D form. Peptide text beside a SMILES is read from it. * marks the point of attachment. Cbz = O=C(OCc1ccccc1)*

Legend:
Gadd45β/MKK7 interaction = target: T1, Gadd45β/MKK7 interaction (Homo sapiens, UniProt O14733); assay: ELISA competition assay of biotin-hGadd45β binding to coated GST-MKK7
T1 construct: The GST-fused full-length kinase was coated for 16 h at 4° C., at a concentration of 42 nM; made in house
T1 sequence (O14733 1-419): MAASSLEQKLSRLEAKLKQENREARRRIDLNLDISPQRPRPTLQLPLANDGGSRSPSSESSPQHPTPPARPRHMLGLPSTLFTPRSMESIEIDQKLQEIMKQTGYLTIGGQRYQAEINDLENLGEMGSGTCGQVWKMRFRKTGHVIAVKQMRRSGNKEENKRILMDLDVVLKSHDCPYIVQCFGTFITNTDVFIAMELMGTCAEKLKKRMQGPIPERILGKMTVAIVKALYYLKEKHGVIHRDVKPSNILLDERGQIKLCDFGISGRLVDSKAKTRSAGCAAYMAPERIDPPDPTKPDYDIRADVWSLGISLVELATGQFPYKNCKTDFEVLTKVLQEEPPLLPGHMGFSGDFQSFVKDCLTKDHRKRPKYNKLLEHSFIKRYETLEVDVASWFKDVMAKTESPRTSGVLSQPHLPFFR
Method in brief: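 GST-MKK7 (42 nM) coated in Tris pH 7.5 buffer, 16 h, 4 °C; biotin-hGadd45β (21 nM) added with competitor peptides (0.01–100 nM), 1 h, 37 °C. Streptavidin-HRP/o-phenylenediamine read at 490 nm; binding expressed as % of signal without competitor.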

[1] = system: primary multiple myeloma cells; assay: Trypan blue exclusion assay in primary multiple myeloma cells from patients; assay type: cell-based, human; conditions: 1 μM or 10 μM, 48 hrs, 5 patients
Description: To confirm that Z-/mDTPs retain cytotoxic activity in primary multiple myeloma cells, we examined the effects of Z-DTP1 and Z-DTP2 on the survival of multiple myeloma cells isolated from patients with a clinical diagnosis of multiple myeloma. To this end, multiple myeloma cells were purified from bone marrow (BM) aspirates of multiple myeloma patients by […], using CD138-conjugated magnetic beads, essentially as described in the reference by Hideshima T. et all 2006, Blood 107: 4053-4062. The purity of multiple myeloma cells was confirmed by flow cytometric, using and CD138 and anti-CD45 antibodies, also essentially in accordance with the procedure described in the reference by Hideshima T. et all 2006, Blood 107: 4053-4062. Purified CD138^+ BM cells were then cultured at a concentration of 4×10^5 cells/ml in wells of 96-well plates and treated with either 1 μM or 10 μM of Z-DTP1, Z-DTP2 or Z-DNC for 48 hrs. Cell viability was measured by cell counting using trypan blue exclusion assays (FIGS. 14A, 14B, 14C, 14D, and 14E).

[2] = system: sh-NS-expressing ARH-77 cells
[3] = system: sh-MKK7-expressing ARH-77 cells
[4] = system: U266, KMS-11, NCI-H929, BJAB and U937 tumour cell lines; assay: [3H]thymidine incorporation assay in tumour cell lines at 10 μM; assay type: cell-based, human; conditions: up to 144 hrs, result in words
Description: All experiments were performed in triplicate.

[5] = Table V, FIG. 3C, read-out: IC50 ELISA

Row | SMILES | IC50 (Gadd45β/MKK7 interaction; Table V, peptides 0.01-10 nM, read-out: IC50 ELISA) [µM] | cytotoxic activity in primary multiple myeloma cells [1] | IC50 [2] [µM] | IC50 [3] [µM] | tumoricidal/cytotoxic activity in tumour cell lines [4] | IC50 (Gadd45β/MKK7 interaction) [µM] | IC50 (Gadd45β/MKK7 interaction; [5]) [µM]
1 | NC(=O)[C@@H](Cc1ccccc1)NC(=O)[C@@H](Cc1c[nH]cn1)NC(=O)[C@@H](CC(=O)O)NC(=O)[C@@H](Cc1ccc(O)cc1)NC(=O)OCc1ccccc1 [Compound 1, Z-Tyr-Asp-His-Phe-NH2] (Cbz-[dY][dD][dH][dF]-NH2) | 0.00022 | strong cytotoxic activity | 1.4 | > 10 |  |  | 
2 | N=C(N)NCCC[C@@H](NC(=O)[C@@H](CCC(=O)O)NC(=O)[C@@H](Cc1ccc(O)cc1)NC(=O)OCc1ccccc1)C(=O)N[C@H](Cc1ccccc1)C(N)=O [Compound 9, Z-D-Tyr-D-Glu-D-Arg-D-Phe-NH2] (Cbz-[dY][dE][dR][dF]-NH2) |  | strong cytotoxic activity | 0.302 | > 10 | high cytotoxic activity |  | 
3 | CC(=O)N[C@H](Cc1ccc(O)cc1)C(=O)N[C@H](CCCNC(=N)N)C(=O)N[C@H](Cc1ccccc1)C(N)=O [Compound 17, Ac-D-Tyr-D-Arg-D-Phe-NH2] (Ac-[dY]-[dR]-[dF]-NH2) |  | Strong cytotoxic activity | 0.303 | > 10 |  | 0.000157 | 
4 | CC(=O)N[C@H](Cc1ccc(O)cc1)C(=O)N[C@H](CC(=O)O)C(=O)N[C@H](Cc1c[nH]cn1)C(=O)N[C@H](Cc1ccccc1)C(N)=O [DTP1, Acetyl-(D-Tyr)-(D-Asp)-(D-His)-(D-Phe)-NH2] (Ac-[dY][dD][dH][dF]-NH2) |  |  |  |  | not |  | 0.00022
5 | CC(=O)N[C@H](Cc1ccc(O)cc1)C(=O)N[C@H](CCC(=O)O)C(=O)N[C@H](CCCNC(=N)N)C(=O)N[C@H](Cc1ccccc1)C(N)=O [DTP2, Acetyl-(D-Tyr)-(D-Glu)-(D-Arg)-(D-Phe)-NH2] (Ac-[dY][dE][dR][dF]-NH2) |  |  |  |  | inactivity |  | 0.00019
